Key:
soybean plants = assay: Rating for plant health of T1 soybean plants; assay type: in vivo
Experimental: 12 T1 soybean plants per event and respective controls are potted and grown for 3-4 weeks in the phytochamber (16 h day-und 8 h-night-Rhythm at a temperature of 16° and 22° C. und a humidity of 75%) till the first 2 trifoliate leaves were fully expanded. A general rating of plant health is performed before (and partially after) the infection experiment. Only those plants are selected for inoculation that show, in general, a healthy phenotype. Healthy phenotype means normal growth habit, green, fully expanded green leaves, having no or only minor lesions, no obvious yellowing, leaf drop or other stress-associated phenotypes.

Phakopsora pachyrhizi = assay: Pathogen assay for soybean: susceptibility to soybean rust (diseased leaf area); assay type: in vivo, Phakopsora pachyrhizi on soybean
Experimental: 12 T1 soybean plants per event and respective controls are potted and grown for 3-4 weeks in the phytochamber (16 h day-und 8 h-night-Rhythm at a temperature of 16° and 22° C. und a humidity of 75%) till the first 2 trifoliate leaves were fully expanded.
The plants are inoculated with spores of P. pachyrhizi. In order to obtain appropriate spore material for the inoculation, soybean leaves, which are infected with rust 15-20 days ago, are taken 2-3 days before the inoculation and transferred to agar plates (1% agar in H2O). The leaves are placed with their upper side onto the agar, which allowed the fungus to grow through the tissue and to produce very young spores. For the inoculation solution, the spores are knocked off the leaves and are added to a Tween-H2O solution. The counting of spores is performed under a light microscope by means of a Thoma counting chamber. […]
The progression of the soybean rust disease is scored in percent by the estimation of the diseased area (area which was covered by sporulating uredinia) on the backside (abaxial side) of the leaf. […]
At all 11-12 T1 soybean plants per event and 5 independent events per construct were inoculated with spores of Phakopsora pachyrhizi. The macroscopic disease symptoms of soybean against P. pachyrhizi of the inoculated soybean plants were scored 14 days after inoculation. […]

[1] = transgenic soybean accumulating the coumarin, compared with WT

Compound | Germination rate (soybean plants; [1]) | first trifoliate leaf (soybean plants; [1]) | growth phenotype (soybean plants; [1]) | older leaves (soybean plants; [1]) | Germination rate (soybean plants; in vivo) | first trifoliate leaf (soybean plants; in vivo) | growth phenotype (soybean plants; in vivo) | older leaves (soybean plants; in vivo) | reduction of the diseased leaf area in comparison to non-transgenic control plants (Phakopsora pachyrhizi; 59 T1 soybean plants (5 events) accumulating sideretin by expressing S8H+CYP82C4, inoculated with P. pachyrhizi spores, scored 14 days after inoculation, p<0.01) | increase of soybean rust resistance (Phakopsora pachyrhizi; accumulation of sideretin by expression of S8H and CYP82C4 (and F6H1 and CoSy) in T1 soybean, vs 18 wild type controls, 14 days after inoculation, p=0,009)
COc1cc2ccc(=O)oc2cc1O [Scopoletin, scopoletin, reference compound] | Slightly | some | Smaller | Yellowing of |  |  |  |  |  | 
COc1c(O)c(O)c2oc(=O)ccc2c1O [Sideretin, sideretin] |  |  |  |  | like WT | like WT | like WT | Unclear | 41% | 41%

Reference: patent US20260275368A1, “COUMARIN SYNTHESIS AND USES THEREOF” (BASF SE, priority 2022, published 2026)
